Laboratory results taken from paper PMC8689225, “Cardiac ryanodine receptor N-terminal region biosensors identify novel inhibitors via FRET-based high-throughput screening” (The Journal of Biological Chemistry, 2021).

Experiments:
[1] = target: T1, RyR2 (Sus scrofa, UniProt A0A5G2R1W3); assay: [3H]ryanodine binding to cardiac SR (CSR) vesicles; format: biochemical, pig
T1 construct: from tissue; host or cells: porcine cardiac left ventricle, crude SR vesicles
Procedure: Crude sarcoplasmic reticulum membrane vesicles were isolated from porcine longissimus dorsi muscle and porcine cardiac left ventricle tissue by differential centrifugation of homogenized tissue, as established previously ([65]). Skeletal heavy SR (HSR) vesicles, which are enriched with RyR1, were isolated by fractionation of crude skeletal SR vesicles using a discontinuous sucrose gradient, in accordance with our published work ([65]). All vesicles were flash-frozen and stored at −80 °C.
In 96-well plates, skeletal SR membranes (HSR, 1 mg/ml) and cardiac SR membranes (CSR, 3 mg/ml) were preincubated with 1% DMSO or hit compound for 30 min at 22 °C in a solution containing 150 mM KCl, 5 mM GSH, 1 μg/ml Aprotinin/Leupeptin, 1 mM EGTA, and 65 μM or 1.02 mM CaCl2 (as determined by MaxChelator to yield 30 nM or 30 μM of free Ca^2+, respectively), 0.1 mg/ml of BSA, and 20 mM K-PIPES (pH 7.0). Nonspecific [^3H]ryanodine binding to SR was assessed by addition of 40 μM nonradioactively labeled ryanodine. Maximal [^3H]ryanodine binding was assessed by addition of 5 mM adenylyl-imidodiphosphate (AMP-PNP), and in the case of CSR, 20 mM caffeine was added. These control samples were each loaded over four wells per plate. Binding of [^3H]ryanodine (7.5 and 10 nM for CSR and HSR, respectively) was determined following a 3 h incubation at 37 °C and filtration through grade GF/B glass microfiber filters (Brandel Inc) using a Brandel Harvester. In 4 ml of Ecolite scintillation cocktail (MP biomedicals), [^3H]ryanodine retained on the filter was counted using a Beckman LS6000 scintillation counter.

[2] = target: T2, RyR1 (Rattus norvegicus, UniProt F1LMY4); assay: t-tubule Ca2+ measurement of RyR1 leak in skinned skeletal muscle fibers; format: cell-based; details: 10 μM FA or 1 mM tetracaine, [Ca2+]cyto 200 nM
T2 construct: from tissue; host or cells: Wistar rat extensor digitorum longus (EDL), mechanically skinned single fibres
Procedure: All experimental methods using rodents were approved by the Animal Ethics Committees at The University of Queensland and were performed in accordance with the relevant guidelines and regulations. Five-month-old Wistar rats (UQ Biological Resources) were euthanized by asphyxiation via CO2 exposure, and the extensor digitorum longus (EDL) was rapidly excised. Once dissected, muscles were pinned to Sylgard set in a Petri dish containing paraffin oil.
Bundles of fibers were isolated and exposed to an internal solution containing rhod-5N, as described previously ([47]). After 15 min incubation, single skeletal muscle fibers were mechanically skinned and mounted in a custom-made chamber. […] For tracking Ca^2+ movements across the t-system membrane, images were continuously recorded in xyt mode with an aspect ratio of 256 × 512, with the long aspect of the image parallel with that of the preparation. Temporal resolution of imaging in this mode where the fluorescence signal was within the borders of the fiber was 0.8 s.
T-system rhod-5N fluorescence was converted to [Ca^2+]t-sys as previously described ([47]). To determine the effect of RyR modulators on the RyR Ca^2+ leak, isolated mechanically skinned fibers were continuously imaged as described above, to obtain a record of t-system rhod-5N fluorescence changes over time as the cytoplasmic solution bathing the fiber was changed. […]

[3] = tested on: rat skeletal muscle fibers; assay: Electrically evoked Ca2+ transients in skinned skeletal muscle fibers; format: cell-based; details: 10 μM FA or 1 mM tetracaine, 1 Hz
Text: Mechanically skinned fibers were isolated, mounted in a custom chamber, and bathed in a resting physiological solution containing rhod-2, as previously described ([21]). The Ca^2+-sensitive dye rhod-2 was used to track cytosolic Ca^2+ transients when exposed to electrical stimulation. Field pulses at 1 Hz frequency and 4 ms in duration were applied across platinum electrodes parallel to the long axis of the fiber. Imaging for electrical stimulation experiments was in xt mode, at a rate of 2 ms.line^−1. DMSO vehicle (0.01%), FA (10 μM), and tetracaine were added to the physiological solution. Each treatment was applied precisely at the seventh successive Ca^2+ transient.

T1 sequence (A0A5G2R1W3 20-4900): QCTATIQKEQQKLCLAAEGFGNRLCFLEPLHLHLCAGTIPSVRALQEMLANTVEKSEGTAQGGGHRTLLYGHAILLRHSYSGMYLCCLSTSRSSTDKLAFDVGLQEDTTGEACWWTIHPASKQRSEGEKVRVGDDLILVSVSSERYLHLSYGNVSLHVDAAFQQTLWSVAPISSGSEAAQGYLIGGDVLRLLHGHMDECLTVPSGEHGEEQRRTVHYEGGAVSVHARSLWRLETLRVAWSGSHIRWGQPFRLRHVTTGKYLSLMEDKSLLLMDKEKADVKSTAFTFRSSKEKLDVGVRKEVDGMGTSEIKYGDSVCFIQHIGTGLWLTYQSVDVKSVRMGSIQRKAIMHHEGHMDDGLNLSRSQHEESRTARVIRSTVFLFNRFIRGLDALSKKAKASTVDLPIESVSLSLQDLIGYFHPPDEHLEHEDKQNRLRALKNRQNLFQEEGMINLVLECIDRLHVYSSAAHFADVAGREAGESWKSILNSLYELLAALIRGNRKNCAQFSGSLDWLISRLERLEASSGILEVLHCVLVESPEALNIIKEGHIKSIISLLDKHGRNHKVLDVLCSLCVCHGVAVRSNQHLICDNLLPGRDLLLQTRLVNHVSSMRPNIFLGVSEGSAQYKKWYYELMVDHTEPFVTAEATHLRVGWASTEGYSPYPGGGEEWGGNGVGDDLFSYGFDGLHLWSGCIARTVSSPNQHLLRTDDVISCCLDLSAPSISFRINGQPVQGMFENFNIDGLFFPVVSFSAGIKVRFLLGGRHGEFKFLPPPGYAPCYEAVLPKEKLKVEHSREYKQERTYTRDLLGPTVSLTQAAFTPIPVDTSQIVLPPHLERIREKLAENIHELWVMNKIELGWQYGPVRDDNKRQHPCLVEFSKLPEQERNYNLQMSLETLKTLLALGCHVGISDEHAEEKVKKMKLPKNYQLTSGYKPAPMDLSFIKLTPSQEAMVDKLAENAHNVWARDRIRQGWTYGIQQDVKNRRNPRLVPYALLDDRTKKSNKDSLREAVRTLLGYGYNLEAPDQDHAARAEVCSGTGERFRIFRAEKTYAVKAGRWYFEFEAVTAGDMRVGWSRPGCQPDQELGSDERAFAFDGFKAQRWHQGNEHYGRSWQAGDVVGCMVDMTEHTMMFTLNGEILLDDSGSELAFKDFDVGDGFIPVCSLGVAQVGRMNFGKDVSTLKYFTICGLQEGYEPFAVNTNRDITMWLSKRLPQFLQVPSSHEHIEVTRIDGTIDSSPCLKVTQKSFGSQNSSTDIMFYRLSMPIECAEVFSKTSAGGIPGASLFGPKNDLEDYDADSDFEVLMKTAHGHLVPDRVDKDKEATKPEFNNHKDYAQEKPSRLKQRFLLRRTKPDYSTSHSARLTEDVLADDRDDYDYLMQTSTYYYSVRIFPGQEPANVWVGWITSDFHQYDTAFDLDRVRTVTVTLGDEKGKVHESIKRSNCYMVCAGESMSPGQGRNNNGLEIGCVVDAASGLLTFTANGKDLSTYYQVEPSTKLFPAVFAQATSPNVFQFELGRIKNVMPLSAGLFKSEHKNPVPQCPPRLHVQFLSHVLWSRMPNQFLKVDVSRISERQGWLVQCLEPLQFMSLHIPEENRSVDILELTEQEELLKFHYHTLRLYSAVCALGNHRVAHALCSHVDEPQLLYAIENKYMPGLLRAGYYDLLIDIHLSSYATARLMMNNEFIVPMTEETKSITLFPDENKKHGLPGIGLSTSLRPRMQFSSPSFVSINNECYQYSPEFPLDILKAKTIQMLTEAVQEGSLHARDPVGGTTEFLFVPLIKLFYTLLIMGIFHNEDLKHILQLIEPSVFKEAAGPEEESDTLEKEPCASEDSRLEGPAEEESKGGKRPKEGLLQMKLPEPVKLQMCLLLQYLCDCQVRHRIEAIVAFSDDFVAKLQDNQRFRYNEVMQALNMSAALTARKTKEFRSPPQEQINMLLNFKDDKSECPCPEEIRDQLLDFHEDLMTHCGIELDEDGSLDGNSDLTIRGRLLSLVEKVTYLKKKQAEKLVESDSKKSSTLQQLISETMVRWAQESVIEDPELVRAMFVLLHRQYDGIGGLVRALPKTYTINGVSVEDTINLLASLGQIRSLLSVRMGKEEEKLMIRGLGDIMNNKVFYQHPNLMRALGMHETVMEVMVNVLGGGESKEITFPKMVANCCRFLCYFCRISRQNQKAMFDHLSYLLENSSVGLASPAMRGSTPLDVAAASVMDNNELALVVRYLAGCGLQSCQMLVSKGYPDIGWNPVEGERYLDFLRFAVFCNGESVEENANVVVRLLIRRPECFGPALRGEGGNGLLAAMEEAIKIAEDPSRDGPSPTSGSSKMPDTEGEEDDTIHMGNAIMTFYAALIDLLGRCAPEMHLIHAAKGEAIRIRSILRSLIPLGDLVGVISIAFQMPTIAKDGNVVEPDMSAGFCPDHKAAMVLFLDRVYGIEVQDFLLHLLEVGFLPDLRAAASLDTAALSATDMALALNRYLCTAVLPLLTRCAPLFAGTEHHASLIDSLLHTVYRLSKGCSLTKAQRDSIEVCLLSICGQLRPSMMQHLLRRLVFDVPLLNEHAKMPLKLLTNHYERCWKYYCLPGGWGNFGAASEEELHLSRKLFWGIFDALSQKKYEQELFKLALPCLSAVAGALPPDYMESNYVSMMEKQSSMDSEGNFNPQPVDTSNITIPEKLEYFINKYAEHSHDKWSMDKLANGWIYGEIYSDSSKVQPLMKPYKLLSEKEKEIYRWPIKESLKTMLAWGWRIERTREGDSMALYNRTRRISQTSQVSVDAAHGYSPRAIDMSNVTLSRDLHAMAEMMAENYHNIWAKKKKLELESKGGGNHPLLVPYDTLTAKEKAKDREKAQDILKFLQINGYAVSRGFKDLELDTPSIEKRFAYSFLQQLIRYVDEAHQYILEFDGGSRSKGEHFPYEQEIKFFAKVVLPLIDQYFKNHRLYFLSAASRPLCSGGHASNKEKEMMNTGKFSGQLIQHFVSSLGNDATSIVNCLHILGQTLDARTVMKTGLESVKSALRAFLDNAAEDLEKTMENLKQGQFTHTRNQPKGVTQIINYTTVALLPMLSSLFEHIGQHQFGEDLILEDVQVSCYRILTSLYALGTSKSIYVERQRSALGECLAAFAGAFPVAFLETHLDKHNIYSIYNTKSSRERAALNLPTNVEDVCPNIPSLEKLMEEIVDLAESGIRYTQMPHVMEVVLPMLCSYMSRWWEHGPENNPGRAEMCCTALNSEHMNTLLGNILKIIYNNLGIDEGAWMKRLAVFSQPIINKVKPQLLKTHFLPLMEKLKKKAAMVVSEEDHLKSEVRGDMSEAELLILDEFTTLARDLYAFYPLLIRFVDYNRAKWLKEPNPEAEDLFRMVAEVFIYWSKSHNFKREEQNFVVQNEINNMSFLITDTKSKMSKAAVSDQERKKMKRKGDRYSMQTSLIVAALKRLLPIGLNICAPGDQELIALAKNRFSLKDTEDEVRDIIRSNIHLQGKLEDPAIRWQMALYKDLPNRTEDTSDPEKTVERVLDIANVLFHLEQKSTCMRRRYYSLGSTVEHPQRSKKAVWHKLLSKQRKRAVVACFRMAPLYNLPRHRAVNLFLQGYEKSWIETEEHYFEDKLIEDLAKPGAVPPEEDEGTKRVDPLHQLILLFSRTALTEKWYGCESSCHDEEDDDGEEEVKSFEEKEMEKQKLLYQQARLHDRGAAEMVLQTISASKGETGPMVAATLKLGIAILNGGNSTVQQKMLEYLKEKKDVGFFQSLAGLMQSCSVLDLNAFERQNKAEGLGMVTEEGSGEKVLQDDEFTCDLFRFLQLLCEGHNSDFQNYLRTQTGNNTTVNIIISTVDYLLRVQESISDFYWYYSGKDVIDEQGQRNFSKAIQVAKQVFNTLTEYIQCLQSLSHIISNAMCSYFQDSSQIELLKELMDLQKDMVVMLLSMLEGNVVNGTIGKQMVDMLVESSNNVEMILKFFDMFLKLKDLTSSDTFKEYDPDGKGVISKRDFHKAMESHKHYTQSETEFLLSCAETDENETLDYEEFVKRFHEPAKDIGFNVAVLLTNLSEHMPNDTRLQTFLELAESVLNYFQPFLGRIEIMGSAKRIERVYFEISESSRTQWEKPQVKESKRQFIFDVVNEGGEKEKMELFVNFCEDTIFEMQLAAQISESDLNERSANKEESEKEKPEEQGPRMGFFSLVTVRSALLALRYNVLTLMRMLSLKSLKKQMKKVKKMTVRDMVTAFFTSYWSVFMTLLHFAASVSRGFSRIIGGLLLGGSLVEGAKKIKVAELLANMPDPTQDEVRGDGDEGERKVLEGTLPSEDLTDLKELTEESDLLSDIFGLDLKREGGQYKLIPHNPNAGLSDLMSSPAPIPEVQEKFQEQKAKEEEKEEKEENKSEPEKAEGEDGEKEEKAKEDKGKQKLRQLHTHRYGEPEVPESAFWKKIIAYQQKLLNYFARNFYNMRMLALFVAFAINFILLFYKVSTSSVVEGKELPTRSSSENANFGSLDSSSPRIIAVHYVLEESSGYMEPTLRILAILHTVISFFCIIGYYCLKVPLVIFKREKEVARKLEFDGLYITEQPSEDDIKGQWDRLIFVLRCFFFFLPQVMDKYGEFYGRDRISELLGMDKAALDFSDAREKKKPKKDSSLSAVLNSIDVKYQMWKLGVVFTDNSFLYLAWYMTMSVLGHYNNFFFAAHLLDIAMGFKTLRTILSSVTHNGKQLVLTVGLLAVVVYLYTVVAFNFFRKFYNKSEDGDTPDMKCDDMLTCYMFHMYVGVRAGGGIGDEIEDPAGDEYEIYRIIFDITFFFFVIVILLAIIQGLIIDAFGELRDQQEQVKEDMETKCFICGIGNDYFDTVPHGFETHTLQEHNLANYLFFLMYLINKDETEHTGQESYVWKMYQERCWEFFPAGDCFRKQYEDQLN

CC(=O)O[C@H]1C[C@@]2(C)[C@@H](C[C@@H](O)[C@H]3[C@@]4(C)CC[C@@H](O)[C@@H](C)[C@@H]4CC[C@@]32C)/C1=C(\CCC=C(C)C)C(=O)O [FA, (2Z)-2-[(3R,4S,5S,8S,9S,10S,11R,13R,14S,16S)-16-acetyloxy-3,11-dihydroxy-4,8,10,14-tetramethyl-2,3,4,5,6,7,9,11,12,13,15,16-dodecahydro-1H-cyclopenta[a]phenanthren-17-ylidene]-6-methylhept-5-enoic acid]
EC50 ([1]; [Ca2+] 30 nM, Table S4, read-out: EC50, [3H]ryanodine binding, cardiac SR): 1700 nM
effect on [3H]ryanodine binding to RyR2 ([1]; cardiac SR, 30 μM Ca2+): slight activation at high concentrations
steady-state [Ca2+]t-sys (RyR1 leak) [2]: decreased
electrically induced Ca2+ transient amplitude [3]: did not have an effect
